Source: publication PMC10094171, “Development of Novel Pt(IV)-Carbohydrate Derivatives as Targeted Anticancer Agents against Osteosarcoma” (International Journal of Molecular Sciences, 2023)

Legend:
hFOBs cells = assay: 2D MTT cell viability assay, non-cancerous human foetal osteoblasts; format: cell-based; settings: hFOBs (healthy cells), 72 h
Method: (§1) The drugs were reconstituted in dimethyl sulfoxide (DMSO) at 1 mg/mL concentration, before being diluted in culture media at the required concentration. A 2D in vitro screening of all the drugs was performed at 72 h in a wide concentration range (0.5; 1.5, 5, 15, 30, 60 and 100 µM) on the three different cell lines in terms of cell viability, and the IC50 was calculated. […] For the models, a composite hydroxyapatite-based scaffold (MgHA/Coll), as a bone-like matrix, was used in combination with MG63 cells.
(§2) Cell culture. […] The cell number and viability were determined using the trypan blue dye exclusion test, and all cell handling procedures were performed under a laminar flow hood in sterility conditions.
(§3) MTT cell viability assay. A quantitative analysis of cell viability was carried out by using MTT assay, following the manufacturer’s instructions. […] After 15 min of incubation under slight stirring conditions, the absorbance of formazan was read at 570 nm by using a Multiskan FC Microplate Photometer (Thermo Fisher Scientific, Waltham, MA, USA). The values of absorbance are directly proportional to the number of metabolic active cells in each well. […]
Statistical Analysis. […] The MTT results were further analysed using one-way analysis of variance (one-way ANOVA) and Dunnett’s multiple comparisons test. […]

SAOS-2 cells = assay: 2D MTT cell viability assay, SAOS-2 osteosarcoma cells; format: cell-based, Human; settings: SAOS-2, 2D, 72 h
Method: as §1, with “calculated. The cell morphology in the presence of the complexes was evaluated at 15 and 30 µM concentrations, for MG63 and SAOS-2 and hFOBs cells, respectively, according to the IC50 at 72 h.” for “calculated.”
as §2, §3

MG63 cells = assay: 2D MTT cell viability assay, MG63 osteosarcoma cells; format: cell-based, Human
Method: as §1, with “calculated. The cell morphology in the presence of the complexes was evaluated at 15 and 30 µM concentrations, for MG63 and SAOS-2 and hFOBs cells, respectively, according to the IC50 at 72 h.” for “calculated.”
as §2, §3

[1] = system: MG63 cells on bone-mimetic scaffold; assay: 3D scaffold-based osteosarcoma model (3D OS model), MTT cell viability; design: species or system Human; settings: 15 µM, MG63 3D OS model
Method: as §1, with “calculated. The cell morphology in the presence of the complexes was evaluated at 15 and 30 µM concentrations, for MG63 and SAOS-2 and hFOBs cells, respectively, according to the IC50 at 72 h.” for “calculated.”
Synthesis of bone-mimetic scaffolds. The Mg-doped hydroxyapatite collagen composite scaffolds were designed and synthesised at ISSMC of CNR of Italy. In brief, 150 g of collagen gel (1 wt%, Opocrin SpA, MO, Italy) was diluted into a phosphoric acid solution (2.4 g in 500 mL; H3PO4, 85 wt.%, Sigma-Aldrich) at room temperature to obtain an acidic aqueous homogenous suspension. […]
MTT cell viability assay. A quantitative analysis of cell viability was carried out by using MTT assay, following the manufacturer’s instructions. […]

Question: What does the source list for `N.N.[Cl][Pt][Cl]` [Cisplatin, cis-[(NH3)2PtCl2], reference compound]?
Answer: IC50 (hFOBs cells): 4.11 µM; IC50 (hFOBs cells; listed as cisplatin): 4.1 µM; IC50 (SAOS-2 cells): 13.7 µM; effect on viable cells in 2D standard culture (MG63 cells; 15 µM, 2D standard culture, p-value ≤ 0.0001): significantly reduced the viable cells; IC50 (MG63 cells; MG63, 2D, MTT, 72 h): 12.2 µM; effect on cell viability in 3D OS model [1]: did not compromise the cell viability
